Data reported in patent publication US8835510B2, “Methods and compositions for treating conditions mediated by oxidative stress or electrophilic environmental toxins” (priority 2010, dated 2014).
“Also recorded” adds a separate entry of the source.

Columns and labels:
[1] = Cell viability (trypan blue) in H2O2-exposed MN9D cultures; details: mouse, MN9D cells
Description: (§1) As a more complex biological model, a determination was made of the relative abilities of the 1,3-dicarbonyls to protect MN9D cells, a dopaminergic cell line, from acrolein- (FIG. 6) or hydrogen peroxide (H2O2)-induced cell death (FIG. 7). Briefly, two days after plating, cells were incubated with AcAc (750 μM) for one hr followed by exposure to graded concentrations of either acrolein (0.50-150 μM×24 hrs) or H2O2 (50-750 μM×24 hrs). Cell viability was determined by trypan blue (0.1%) exclusion. Living cells were counted in a hemocytometer and total cells per dish were calculated.
(§2) This system represents a more complete model of oxidative stress since the hydroxyl radical formed from intracellular H2O2 during the Fenton reaction, subsequently mediates the generation of toxic aldehyde by-products such as acrolein and 4-hydroxy-2-nonenal (HNE).

[2] = pKa and enolate ionization of enol compounds; format: physicochemical
[3] = Kinetic assay of acrolein-induced N-acetyl cysteine (NAC) sulfhydryl loss (DTNB method)
Description: As an index of cytoprotection, these studies focused on the abilities of 1,3-dicarbonyl compounds to prevent electrophile-induced loss of protein and non-protein sulfhydryl groups. This experimental focus is based on substantial evidence that soft electrophiles, like acrolein, produce toxicity by forming Michael-type adducts with soft nucleophilic thiolate (anionic sulfhydryl) groups on functionally critical proteins^9, 17, 22, 56, 57 (reviewed in^28, 58, 62, 77, 94). […] To test this hypothesis, a determination was made of the ability of AcAc and other structurally related enol analogs to prevent sulfhydryl (nucleophile) adduction by acrolein (electrophile)^56. […] Free sulfhydryl concentrations were determined over time (up to 15 mins) by the DTNB method of LoPachin et al.^52.
Therefore, as a kinetic index of competitive thiol protection by enolate sequestration, the relative in vitro abilities of 1,3-dicarbonyl compounds and phloretin to slow the rate of acrolein-induced sulfhydryl loss were measured.

MN9D cells [4] = assay: Cell viability (trypan blue) in acrolein-exposed MN9D cultures; details: pre-incubation 60 minutes, 750 μM each (phloretin 100 μM)
Description: as §1

MN9D cells [5] = assay: Cell viability (trypan blue) in H2O2-exposed MN9D cultures; details: test compound 750 μM (phloretin 100 μM)
Description: as §1, §2

[6] = Free radical scavenging (DPPH absorbance method of Ak and Gulcin)
Description: The relative abilities of selected 1,3-dicarbonyl compounds to scavenge free radicals were determined using the spectrophotometric method of Ak and Gulcin (2008)^4 that measures changes in the absorbance of the 2,2-diphenyl-1-picrylhydrazyl radical.

[7] = Ferrous ion chelation (method of Dairam et al.)
[8] = Cytotoxicity of test compound alone in MN9D cultures; details: mouse, MN9D cells
MN9D cells [9] = assay: as above; details: 100 μM
[10] = tested on: control striatal synaptosomes; assay: In vitro toxicity: radiolabeled dopamine (DA) membrane transport in control striatal synaptosomes; details: FIG. 4

OO [H2O2, hydrogen peroxide]
CC50 at 24 h [1]: 254 µM

O=C(CCc1ccc(O)cc1)c1c(O)cc(O)cc1O [phloretin, reference compound]
pKa [2]: 7.3 | rate of sulfhydryl loss (mean rate±SE) ([3]; NAC + acrolein 150 μM + test compound 50 μM co-incubated, Krebs buffer pH 7.4, 30° C.): −1.9±0.7 nmol SH sec^−1 | sulfhydryl (NAC) protection, pre-incubation ([3]; acrolein pre-incubated with test compound, NAC added one hour later): significant thiol protection | sulfhydryl (NAC) protection, co-incubation ([3]; all chemicals added simultaneously): only marginally protective | protection against acrolein-induced cell death (words) (MN9D cells [4]): did not protect | protection against acrolein-induced cell death (words) (MN9D cells [4]; listed as Phloretin): did not provide cytoprotection | protection against H2O2-induced cell death (MN9D cells [5]): potentiated H2O2 toxicity | DPPH radical scavenging [6]: relatively weak DPPH. scavengers | Fe^2+ chelating activity [7]: little, if any, Fe^2+ chelating activity | CC50 [8]: 362 µM | MN9D cell death / cell loss by compound alone (MN9D cells [9]): ~50% | MN9D cell death / cell loss by compound alone (MN9D cells [9]; listed as Phloretin): 42% | synaptosomal toxicity of compound alone, DA transport (words, IC50 magnitude) [10]: relatively significant in vitro toxicity; also recorded: significant synaptosomal toxicity
